Test results: patent US8252940B2, “5-substituted-2-imino-thiazolidinone compounds and their use as inhibitors of bacterial infection” (University of Washington, priority 2008, dated 2012)

Experiments:
[1] = test system: type III secretion in S. typhimurium; experiment: microbe, parasite or virus in culture; format: cell-based, Salmonella enterica serovar Typhimurium; settings: for inhibition at 33 µM / inhibition at 330 µM / inhibition at 3.3 µM: Salmonella enterica, TYPHIMURIUM, read-out: % inhibition of SipA secretion
[2] = test system: S. typhimurium T3S secreted substrates; format: cell-based; settings: Western blot
Ysc T3S system = experiment: Secretion profile of Y. enterocolitica Ysc T3S system; format: cell-based, Yersinia enterocolitica; settings: 380 μM
Ysa T3S system = experiment: Secretion profile of Y. enterocolitica Ysa T3S system; format: cell-based, Yersinia enterocolitica; settings: 380 μM
T3S needle complex (NC) = T3S needle complex (NC) (Salmonella typhimurium, UniProt P35672); format: cell-based, S. typhimurium
Chain of T3S needle complex (NC) (P35672 25-562, one chain of several): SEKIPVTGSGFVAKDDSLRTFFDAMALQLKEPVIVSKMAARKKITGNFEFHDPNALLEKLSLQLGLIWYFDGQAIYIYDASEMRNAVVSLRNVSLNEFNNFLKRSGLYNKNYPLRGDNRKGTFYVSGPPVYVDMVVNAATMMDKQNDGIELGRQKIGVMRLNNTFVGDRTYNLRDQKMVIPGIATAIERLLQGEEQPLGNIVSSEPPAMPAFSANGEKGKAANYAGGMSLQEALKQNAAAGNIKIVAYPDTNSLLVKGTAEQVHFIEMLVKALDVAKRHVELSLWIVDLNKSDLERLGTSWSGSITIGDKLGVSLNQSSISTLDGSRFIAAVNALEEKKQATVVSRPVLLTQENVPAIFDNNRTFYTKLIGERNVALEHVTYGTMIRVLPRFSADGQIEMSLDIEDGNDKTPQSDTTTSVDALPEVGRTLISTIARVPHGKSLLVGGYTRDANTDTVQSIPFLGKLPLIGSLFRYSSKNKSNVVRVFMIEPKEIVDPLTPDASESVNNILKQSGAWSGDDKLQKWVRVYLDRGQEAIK

InvG, PrgH and PrgK = experiment: Abundance and membrane localization of NC proteins (Western blot of membrane fractions); format: cell-based, S. typhimurium; settings: 380 μM
Method: FIG. 3A is an image of a Western blot of type III secretion NC proteins isolated from S. typhimurium grown in the presence (+) or absence (−) of 380 μM of Compound 1. FIG. 3B is an image of a Western blot of membrane fractions of S. typhimurium grown in the presence (+) or absence (−) of 380 μM of Compound 1. In the presence of Compound 1, InvG cellular levels and bacterial membrane localization were unaltered (FIGS. 3A and 3B). Similarly, protein levels and localization of the other NC proteins PrgH and PrgK were unchanged.

flagellar T3S system = experiment: Flagellar function: motility assay and flagellin secretion; format: cell-based, S. typhimurium; settings: 380 μM
[3] = test system: P. aeruginosa twitching motility (T4P); experiment: Twitching assay; format: cell-based, Pseudomonas aeruginosa; settings: 380 μM in motility plates
[4] = test system: Francisella virulence protein secretion; format: cell-based, Francisella novicida; settings: 380 μM
[5] = test system: Pseudomonas syringae pv tomato DC3000; experiment: Hypersensitivity response (HR) in non-host tobacco plants; format: in vivo; settings: 380 μM, overlapping infiltration, compared with solvent alone; 24 hours
From the text: Inhibition of T3S-dependent pathogenesis of the plant pathogen, Pseudomonas syringae pv tomato DC3000 for tobacco. The bacterial plant pathogen Pseudomonas syringae pv tomato DC3000 requires T3S of virulence determinants to cause disease. The hypersensitivity response (HR) elicited by P. syringae in non-host tobacco plants depends upon a functional T3S system, representing an established virulence model for this pathogen. To determine the effect of Compound 1 on P. syringae pathogenesis for plants, overlapping infiltrations of P. syringae and Compound 1 were performed. P. syringae was inoculated on non-host tobacco plants and monitored for HR. Bacterial inoculations partially overlapped inoculations of either 380 μM of Compound 1 or the solvent DMSO. HR was measured by tissue collapse of plants cells in the overlapping region.
Therefore, these compounds, which blocked disease in an important model of plant pathogenesis, may have utility in preventing disease of plants.

bone marrow macrophages = experiment: Cytotoxicity of compound added directly to macrophages (LDH release)
[6] = test system: T2-dependent secretion of elastase; experiment: Elastolytic activity assay of culture supernatants (elastin Congo red); settings: 380 μM; 18 hour culture (PAO1-C); untreated PAO1 1.881, pilD 0.098
[7] = test system: invF, prgH, and sipA genes; experiment: Transcriptional reporter fusions of T3S genes to lacZ, β-Galactosidase activity; settings: cultures grown in presence vs absence of compound
[8] = test system: bone marrow macrophages infected with S. typhimurium; experiment: S. typhimurium T3-dependent cytotoxicity of bone marrow macrophages (LDH release); settings: bacteria grown in presence of compound; multiplicity of 40; 40% without compound

`COc1cc(/C=C2\S/C(=N\c3ccccc3)N(c3ccccc3)C2=O)cc(OC)c1O` [Compound 1] was tested, and the “inhibition of known T3S substrates” value ([1]; 380 uM) was “complete inhibition”, the “% Secretion” value ([1]; type III secretion in S. typhimurium, SipA secretion by Western blot) was 0 ± 0% and the “secretion of SipA and SspH1 expressed from the T3S-independent lac promoter” value [2] was “Neither of these proteins was secreted”. For the same compound, the “amount of T3 secreted proteins SipA, B, and C” value ([2]; cultures grown in presence of compound) was “marked decrease”, the “Yop proteins in culture supernatants” value (Ysc T3S system) was “absent” and the “Ysp proteins in culture supernatants” value (Ysa T3S system) was “absent”. For the same compound, the “NC proteins in isolated needle complexes” value (T3S needle complex (NC); 380 μM, Western blot) was “overall reduction”, the “NC number on the cell surface” value (T3S needle complex (NC); electron micrographs of osmotically shocked cells) was “marked reduction” and the “InvG cellular levels and bacterial membrane localization” value (InvG, PrgH and PrgK) was “unaltered”. The “protein levels and localization of PrgH and PrgK” value (InvG, PrgH and PrgK) was “unchanged”, the S. typhimurium motility (flagellar T3S system) was “unaffected” and the secretion of flagellin (flagellar T3S system) was “unaltered”. The “P. aeruginosa twitching motility” value [3] was “significantly reduced”, the “secretion of the known Francisella virulence proteins” value [4] was “inhibited secretion” and the “ability of P. syringae to elicit HR” value [5] was “reduced ability to elicit HR”. The “lysis of macrophages exposed to compound alone” value (bone marrow macrophages) was “did not lyse”, the “OD495, elastolytic activity of culture supernatant” value [6] was 0.437 and the “β-Galactosidase activity of invF, prgH, sipA lacZ fusions” value [7] was “similar”. For the same compound, the “caspase-1 dependent cell death of macrophages” value [8] was 0.5%.
For `COc1cc(/C=C2\S/C(=N\c3ccccc3)N(C(CCCNC(=N)N)C(=O)N3Cc4ccccc4C[C@H]3C(N)=O)C2=O)cc(OC)c1O` (stereo partly drawn) [compound 88, (S)-2-(5-guanidino-2-((2Z,5Z)-5-(4-hydroxy-3,5-dimethoxybenzylidene)-4-oxo-2-(phenylimino)thiazolidin-3-yl)pentanoyl)-1,2,3,4-tetrahydroisoquinoline-3-carboxamide], the inhibition at 33 µM [1] was 0% and the inhibition at 330 µM [1] was 100%.
Work on `COc1cc(/C=C2\SC(=Nc3ccccc3)N([C@@H](CCCN)C(=O)N[C@@H](CC3CNc4ccccc43)C(N)=O)C2=O)cc(OC)c1O` (stereo partly drawn) [compound 90, (S)-5-amino-N-((S)-1-amino-3-(indolin-3-yl)-1-oxopropan-2-yl)-2-((5Z)-5-(4-hydroxy-3,5-dimethoxybenzylidene)-4-oxo-2-(phenylimino)thiazolidin-3-yl)pentanamide] yielded an inhibition at 3.3 µM [1] of 20%, an inhibition at 33 µM [1] of 22% and an inhibition at 330 µM [1] of 100%.
In the case of `COc1cc(/C=C2\S/C(=N\c3ccccc3)N([C@@H](CCCN)C(=O)N[C@@H](Cc3ccc(-c4ccccc4)cc3)C(N)=O)C2=O)cc(OC)c1O` [compound 91], the “% inhibition of SipA secretion” value ([1]; 3.3 µM) is reported as 100 (330) 66 (33) 3 (3.3) %, the “% inhibition of SipA secretion” value ([1]; 33 µM) is reported as 100 (330) 66 (33) 3 (3.3) % and the “% inhibition of SipA secretion” value ([1]; 330 µM) is reported as 100 (330) 66 (33) 3 (3.3) %.
`COc1cc(/C=C2\S/C(=N\c3ccccc3)N(C(CCCNC(=N)N)C(=O)N3CSC[C@H]3C(N)=O)C2=O)cc(OC)c1O` (stereo partly drawn) [compound 94, (R)-3-(5-guanidino-2-((2Z,5Z)-5-(4-hydroxy-3,5-dimethoxybenzylidene)-4-oxo-2-(phenylimino)thiazolidin-3-yl)pentanoyl)thiazolidine-4-carboxamide] was tested, and the inhibition at 3.3 µM [1] was 3%, the inhibition at 33 µM [1] was 7% and the inhibition at 330 µM [1] was 89%.
`COc1cc(/C=C2\S/C(=N\c3ccccc3)N(C(Cc3ccncc3)C(=O)N[C@@H](CCCNC(=N)N)C(N)=O)C2=O)cc(OC)c1O` (stereo partly drawn) [compound 95, (S)-5-guanidino-2-(2-((2Z,5Z)-5-(4-hydroxy-3,5-dimethoxybenzylidene)-4-oxo-2-(phenylimino)thiazolidin-3-yl)-3-(pyridin-4-yl)propanamido)pentanamide] gave an inhibition at 33 µM [1] of 8% and an inhibition at 330 µM [1] of 89%.
`COc1cc(/C=C2\S/C(=N\c3ccccc3)N([C@@H](Cc3ccc(-c4ccccc4)cc3)C(=O)N[C@@H](CCCNC(=N)N)C(N)=O)C2=O)cc(OC)c1O` [compound 96] was tested, and the “% inhibition of SipA secretion” value ([1]; 3.3 µM) was 100 (330) 95 (33) 54 (3.3) %, the “% inhibition of SipA secretion” value ([1]; 33 µM) was 100 (330) 95 (33) 54 (3.3) % and the “% inhibition of SipA secretion” value ([1]; 330 µM) was 100 (330) 95 (33) 54 (3.3) %.
In the case of `COc1cc(/C=C2\S/C(=N\c3ccccc3)N([C@@H](CC3CNc4ccccc43)C(=O)N[C@@H](CCCNC(=N)N)C(N)=O)C2=O)cc(OC)c1O` (some centres unmarked) [compound 98], the “% inhibition of SipA secretion” value ([1]; 3.3 μM, Western blot) is reported as 2%, the “% inhibition of SipA secretion” value ([1]; 33 μM, Western blot) is reported as 12% and the “% inhibition of SipA secretion” value ([1]; 330 μM, Western blot) is reported as 100%.
